Each compound was assayed against T1, human A2a receptor (Homo sapiens, UniProt P29274) (assay: A2a receptor competition binding assay (Scintillation Proximity)). Conditions: A2a Ki, membranes from HEK293 cells expressing human A2a receptor; 0.5 nM tritiated ligand; Cheng-Prusoff.
T1 construct: purchased Perkin-Elmer RBHA2AM400UA; host or cells: HEK293 cells, used as a membrane preparation
Procedure: Binding affinities of compounds of the invention for the human A2a receptor were determined in a competition binding assay using Scintillation Proximity technology. Thus, 0.3 μg of membranes from HEK293 cells expressing the human A2a receptor were incubated with a compound of the invention at concentrations ranging from 3000 nM to 0.15 nM in a reaction mixture containing also 0.5 nM of a tritiated form of 5-amino-7-[2-phenethyl]-2-(furan-2-yl)-7H-pyrazolo[4,3-e][1,2,4]triazolo[1,5-c]pyrimidine (the tritiated compound) and 100 μg of wheat germ agglutin-coated yttrium silicate SPA beads for one hour at room temperature with agitation. The beads were then allowed to settle to the bottom of the wells for 1 hr, after which the membrane-associated radioactivity was determined by scintillation counting in a TopCount microplate reader. Ki values were determined using the Cheng-Prusoff equation.
Summary of Materials and Methods Used in A2a Activity Determination:
HEK293 cells expressing the human, rat, dog or monkey adenosine 2a receptor (Purchased from Perkin-Elmer #RBHA2AM400UA).
The Tritiated compound was prepared according to published methods.
Wheat germ agglutinin-coated yttrium silicate SPA beads (GE Healthcare #RPNQ0023). Dilute to 25 mg/ml in assay buffer.
Assay Buffer was prepared using Dulbecco's calcium and magnesium free phosphate buffered saline+10 mMMgCl2
Adenosine deaminase from calf intestine, 10 mg/2 ml (Roche #10 102 105 001).
A2a antagonist standard (9-chloro-1-(2-furanyl)-[1,2,4]triazolo1,5-c]quinazolin-5-amine from Tocris Bioscience)
Make eight 1:3 serial dilutions in 100% DMSO from a 3 mM compound stock
Transfer 50 nl of compound into a 384-well OptiPlate (Perkin Elmer).
Typically, final concentrations of compound used in the assay ranged from 3000 nM to 0.152 nM.
Dilute a solution of the Tritiated compound to 1.25 nM in assay buffer. This is a 2.5× solution. The final concentration in the assay is 0.5 nM. Calculate the concentration by counting two 5 μl aliquots.
Use 0.25 ug of membrane/well. Dilute membranes to 9.7 μg/ml in assay buffer. Treat with 20 ug/ml adenosine deaminase (ADA) for 15 minutes at room temperature to degrade endogenous adenosine.
Use 100 μg/well wheat germ agglutinin-coated yttrium silicate SPA beads.
Mix ADA-treated membranes and SPA beads together for 30 min prior to assay.
To the Perkin-Elmer Optiplate-384 containing the compound titration add 20 μl of 2.5× solution of the Tritiated compound and 30 μl of the membrane-bead mixture. Incubate for one hour at room temperature with agitation.
Include total binding (assay buffer+1% DMSO) and non-specific binding (CGS15943, 1 μM) wells.
Allow the beads to settle for one hour.
A curve fitting program (i.e., Prism, Activity Base, Chemcart) is used to determine the EC50. The Ki value is calculated using the Cheng-Prusoff equation. Ki=EC50/(1+(radioligand concentration/Kd))

T1 sequence (P29274 whole entry): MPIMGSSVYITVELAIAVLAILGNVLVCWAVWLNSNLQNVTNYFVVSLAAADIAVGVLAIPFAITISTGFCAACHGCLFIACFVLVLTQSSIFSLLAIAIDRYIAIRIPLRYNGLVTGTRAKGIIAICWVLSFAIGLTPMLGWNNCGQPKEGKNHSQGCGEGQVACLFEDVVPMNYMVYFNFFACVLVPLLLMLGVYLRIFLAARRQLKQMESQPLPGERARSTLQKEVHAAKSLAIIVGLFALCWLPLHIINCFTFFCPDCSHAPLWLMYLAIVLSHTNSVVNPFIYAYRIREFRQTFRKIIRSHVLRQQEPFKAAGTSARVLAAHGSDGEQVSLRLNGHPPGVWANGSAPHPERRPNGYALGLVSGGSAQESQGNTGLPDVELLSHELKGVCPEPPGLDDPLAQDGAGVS

How did the Ki turn out when `COc1cccc2c1nc(N)n1cc(C(=O)N3CCC4(CC3)OCCO4)nc21` [Ex-188, (5-amino-7-methoxyimidazo[1,2-c]quinazolin-2-yl)(1,4-dioxa-8-azaspiro[4.5]decan-8-yl)methanone] was run?
The Ki was 54 nM.

Same assay, conditions: membranes from HEK293 cells expressing human A2a receptor; 0.5 nM tritiated ligand; Cheng-Prusoff; read-out: A2a Ki

Which Ki does the source give for `CCN1CCC2(CCN(C(=O)c3cn4c(N)nc5c(F)cccc5c4n3)C2)C1` (stereo not drawn) [Ex-280, (5-amino-7-fluoroimidazo[1,2-c]quinazolin-2-yl)(7-ethyl-2,7-diazaspiro[4.4]nonan-2-yl)methanone] here?
Its Ki is 100 nM.

For `Nc1nc2c(F)cccc2c2nc(C(=O)N3CCC4(CCCNC4)CC3)cn12` [Ex-270, (5-amino-7-fluoroimidazo[1,2-c]quinazolin-2-yl)(2,9-diazaspiro[5.5]undecan-9-yl)methanone], which Ki is on record?
Its Ki is 100 nM.

`COc1cccc2c1nc(N)n1cc(C(=O)N3CCC4(CCOC4)CC3)nc21` [Ex-197, (5-amino-7-methoxyimidazo[1,2-c]quinazolin-2-yl)(2-oxa-8-azaspiro[4.5]decan-8-yl)methanone] was tested. Which Ki did it give?
The Ki was 22 nM.

With `COc1ccc(-c2ccc(Cc3cn4c(N)nc5c(F)cccc5c4n3)cc2)cc1` [Ex-78, 7-fluoro-2-((4′-methoxy-[1,1′-biphenyl]-4-yl)melhyl)imidazo[1,2-c]quinazolin-5-amine] as the compound, how does the Ki read?
The Ki was 120 nM.

With `CN(Cc1cccc2cccnc12)C(=O)c1cn2c(N)nc3c(F)cccc3c2n1` [Ex-162, 5-amino-7-fluoro-N-methyl-N-(quinolin-8-ylmethyl)imidazo[1,2-c]quinazoline-2-carboxamide] as the compound, how does the Ki read?
The Ki was 29.7 nM.

For `COc1cccc2c1nc(N)n1cc(C(=O)N3CCC4(CCCC4)C3)nc21` [Ex-222, (5-amino-7-methoxyimidazo[1,2-c]quinazolin-2-yl)(2-azaspiro[4.4]nonan-2-yl)methanone], which Ki is on record?
Its Ki is 11 nM.

For `Nc1nc2c(F)cccc2c2nc(C(=O)N3CCC4(CCNC4)CC3)cn12` [Ex-267, (5-amino-7-fluoroimidazo[1,2-c]quinazolin-2-yl)(2,8-diazaspiro[4.5]decan-8-yl)methanone], which Ki is on record?
Its Ki is 710 nM.

With `Nc1nc2c(F)cccc2c2nc(Cn3cc(-c4cccnc4)nn3)cn12` [Ex-96, 7-fluoro-2-((4-(pyridin-3-yl)-1H-1,2,3-triazol-1-yl)methyl)imidazo[1,2-c]quinazolin-5-amine] as the compound, how does the Ki read?
Its Ki is 36 nM.

`COc1cccc2c1nc(N)n1cc(C(=O)N3CCC4OCCC43)nc21` (stereo not drawn) [Ex-220, (5-amino-7-methoxyimidazo[1,2-c]quinazolin-2-yl)(hexahydro-4H-furo[3,2-b]pyrrol-4-yl)methanone] was tested. Which Ki did it give?
The Ki was 24 nM.

`Nc1nc2c(F)cccc2c2nc(Cc3ccccc3-c3ccccc3)cn12` [Ex-27, 2-([1,1′-biphenyl]-2-ylmethyl)-7-fluoroimidazo[1,2-c]quinazolin-5-amine] was tested. Which Ki did it give?
Its Ki is 2.6 nM.

`CC(=O)N1CCCC2(CCN(C(=O)c3cn4c(N)nc5c(F)cccc5c4n3)CC2)C1` [Ex-278, 1-(9-(5-amino-7-fluoroimidazo[1,2-c]quinazoline-2-carbonyl)-2,9-diazaspiro[5.5]undecan-2-yl)ethan-1-one] was tested. Which Ki did it give?
The Ki was 61 nM.

`COc1cccc2c1nc(N)n1cc(Cc3ccccc3N3CCCCC3)nc21` [Ex-36, 7-methoxy-2-(2-(piperidin-1-yl)benzyl)imidazo[1,2-c]quinazolin-5-amine] was tested. Which Ki did it give?
The Ki was 2.8 nM.

`Nc1nc2c(F)cccc2c2nc(CC3CCN(Cc4cccnc4)CC3)cn12` [Ex-313, 7-fluoro-2-((1-(pyridin-3-yl-methyl)piperidin-4-yl)methyl)imidazo-[1,2-c]quinazolin-5-amine] was tested. Which Ki did it give?
Its Ki is 310 nM.

`COc1cccc2c1nc(N)n1cc(C(=O)N3CCCC4(C3)CC(C)(C)OC4=O)nc21` (stereo not drawn) [Ex-229, 7-(5-amino-7-methoxyimidazo[1,2-c]quinazoline-2-carbonyl)-3,3-dimethyl-2-oxa-7-azaspiro[4.5]decan-1-one] was tested. Which Ki did it give?
Its Ki is 15 nM.

How did the Ki turn out when `Nc1nc2c(F)cccc2c2nc(C(=O)NCc3cccc(N4CCN(c5ccc(F)cc5F)CC4)c3)cn12` [Ex-252, 5-amino-N-(3-(4-(2,4-difluorophenyl)piperazin-1-yl)benzyl)-7-fluoroimidazo[1,2-c]quinazoline-2-carboxamide] was run?
Its Ki is 7.2 nM.

With `COc1cccc2c1nc(N)n1cc(Cc3ccc(N4CCOCC4)cc3)nc21` [Ex-41, 7-methoxy-2-(4-morpholinobenzyl)imidazo[1,2-c]quinazolin-5-amine] as the compound, how does the Ki read?
The Ki was 15 nM.

How did the Ki turn out when `COc1cccc2c1nc(N)n1cc(C(=O)N3CCCC4(CC4)C3)nc21` [Ex-174, (5-amino-7-methoxyimidazo[1,2-c]quinazolin-2-yl)(5-azaspiro[2.5]octan-5-yl)methanone] was run?
Its Ki is 2.3 nM.

How did the Ki turn out when `Nc1nc2c(Br)cccc2c2nc(CNCc3cccnc3)cn12` [Ex-141, 7-bromo-2-(((pyridin-3-ylmethyl)amino)methyl) imidazo[1,2-c]quinazolin-5-amine] was run?
The Ki was 9.5 nM.

`Nc1nc2c(F)cccc2c2nc(CN3CCN(CCc4ccccc4)CC3)cn12` [Ex-113, 7-fluoro-2-((4-phenethylpiperazin-1-yl)methyl)imidazo-[1,2-c]quinazolin-5-amine] was tested. Which Ki did it give?
The Ki was 76 nM.

How did the Ki turn out when `Nc1nc2c(F)cccc2c2nc(-c3ccccc3CO)cn12` [Ex-107, (2-(5-amino-7-fluoroimidazo[1,2-c]quinazolin-2-yl)phenyl)methanol] was run?
The Ki was 4.3 nM.

For `CC(=O)N1CCc2c(Cc3cn4c(N)nc5c(F)cccc5c4n3)cccc2C1` [Ex-53, 1-(5-((5-amino-7-fluoroimidazo[1,2-c]quinazolin-2-yl)methyl)-3,4-dihydroisoquinolin-2(1H)-yl)ethan-1-one], which Ki is on record?
The Ki was 3.7 nM.

How did the Ki turn out when `Nc1nc2c(F)cccc2c2nc(C(=O)N3CCc4ccc(NC(=O)c5ccccn5)cc4C3)cn12` [Ex-291, N-(2-(5-amino-7-fluoroimidazo[1,2-c]quinazoline-2-carbonyl)-1,2,3,4-tetrahydroisoquinolin-7-yl)picolinamide] was run?
The Ki was 47 nM.

For `N#Cc1ccc(N2CCc3c(Cc4cn5c(N)nc6c(F)cccc6c5n4)cccc3C2)nc1` [Ex-54, 6-(5-((5-amino-7-fluoroimidazo[1,2-c]quinazolin-2-yl)methyl)-3,4-dihydroisoquinolin-2(1H)-yl)nicotinonitrile], which Ki is on record?
The Ki was 3.8 nM.

With `Nc1nc2c(F)cccc2c2nc(CN3CCN(C(=O)Cc4ccccn4)c4ccccc43)cn12` [Ex-136, 1-(4-((5-amino-7-fluoroimidazo[1,2-c]quinazolin-2-yl)methyl)-3,4-dihydroquinoxalin-1(2H)-yl)-2-(pyridin-2-yl)ethan-1-one] as the compound, how does the Ki read?
The Ki was 12 nM.

For `COc1cccc2c1nc(N)n1cc(C(=O)N3CCC4(CCCO4)CC3)nc21` [Ex-230, (5-amino-7-methoxyimidazo[1,2-c]quinazolin-2-yl)(1-oxa-8-azaspiro[4.5]decan-8-yl)methanone], which Ki is on record?
Its Ki is 61.1 nM.

For `COc1cccc2c1nc(N)n1cc(CN3Cc4cccnc4C3)nc21` [Ex-122, 2-((5,7-dihydro-6H-pyrrolo[3,4-b]pyridin-6-yl)methyl)-7-methoxyimidazo[1,2-c]quinazolin-5-amine], which Ki is on record?
The Ki was 11 nM.

`COc1cccc2c1nc(N)n1cc(C(=O)N3CCCC4(CC4)C3)nc21` [Ex-242, (5-amino-7-methoxyimidazo[1,2-c]quinazolin-2-yl)(5-azaspiro[2.5]octan-5-yl)methanone] was tested. Which Ki did it give?
Its Ki is 4.3 nM.

For `COc1cccc2c1nc(N)n1cc(C(=O)N3CCC4(CCOC4=O)CC3)nc21` [Ex-228, 8-(5-amino-7-methoxyimidazo[1,2-c]quinazoline-2-carbonyl)-2-oxa-8-azaspiro[4.5]decan-1-one], which Ki is on record?
The Ki was 180 nM.

`Nc1nc2c(F)cccc2c2nc(CCc3ccccn3)cn12` [Ex-101, 7-fluoro-2-(2-(pyridin-2-yl)ethyl)imidazo[1,2-c]quinazolin-5-amine] was tested. Which Ki did it give?
The Ki was 8.5 nM.
